Experimental data: patent US20240034731A1, “AZA-QUINAZOLINE COMPOUNDS AND METHODS OF USE” (Iambic Therapeutics, Inc., priority 2022, published 2024)

How the values were obtained:
CDK1/Cyclin B1 = CDK1/Cyclin B1 (Homo sapiens (Human), UniProt P06493); experiment: CDK1/Cyclin B1 ADP-Glo Kinase Assay; type: biochemical; details: ADP-Glo, 80 uM ATP; read-out: CDK1 Cyclin B1 IC50
Method in brief: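 Enzyme and inhibitor pre-incubated 30 min at room temperature before ATP/substrate addition; reaction run 90 min at room temperature. ADP formed measured by ADP-Glo luminescence; IC50 from a 4-parameter fit of fractional velocity versus inhibitor concentration.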

CDK2/Cyclin E1 = CDK2/Cyclin E1 (Homo sapiens (Human), UniProt P24941); experiment: CDK2/Cyclin E1 Full length ADP-Glo Kinase Assay; type: biochemical; details: 20 uM ATP, read-out: CDK2/ CyclinE1 IC50
Method in brief: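 Full-length human CDK2/cyclin E1 was preincubated 30 min at room temperature with inhibitor, then reacted 90 min with ATP-containing substrate solution. ADP formed was measured by ADP-Glo luminescence; IC50 from 4-parameter fit of fractional velocity versus inhibitor concentration.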

CDK4/Cyclin D1 [1] = target: T1, CDK4/Cyclin D1 (Homo sapiens (Human), UniProt P11802); experiment: CDK4/Cyclin D1 Mobility Shift Assay (MSA); type: biochemical; details: 0.2 mM ATP, read-out: CDK4/ CyclinD1 MSA IC50
Description: CDK4/Cyclin D1 Mobility Shift Assay (MSA)
The purpose CDK4/Cyclin D1 assay is to evaluate the inhibition (% inhibition and IC50 values) in the presence of small molecule inhibitors by using a fluorescence based microfluidic mobility shift assay. CDK4/Cyclin D1 catalyzes the production of ADP from ATP that accompanies the phosphoryl transfer to the substrate peptide 5-FAM-Dyrktide (5-FAM-[…]) (Perkin Elmer Peptide 34). The mobility shift assay (MSA) electrophoretically separates the fluorescently labelled peptides (substrate and phosphorylated product) following the kinase reaction. Both substrate and product are measured, and the ratio of these values is used to generate % conversion of substrate to product by the LabChip EZ Reader. Typical reaction solutions contained 2% DMSO (+/− inhibitor), 10 mM MgCl2, 1 mM EGTA, 0.05% BSA, 2 mM DTT, 0.2 mM ATP, 0.01% Brig-35, 1.5 uM 5-FAM-Dyrktide, 2.5 nM CDK4/Cyclin D1 in 50 mM HEPES buffer at pH 7.5. The reaction was initiated with the addition of substrate solution, following a 30-minute pre-incubation of enzyme and inhibitor at 22° C. in the reaction mix. The reaction was stopped after 180 minutes by the addition of 75 uL of 500 mM EDTA and measured on a Perkin Elmer EZ reader instrument. IC50 determinations were made from a plot of the fractional velocity as a function of inhibitor concentration fit to the 4 parameters IC50 equation.

CDK6/Cyclin D3 = CDK6/Cyclin D3 (Homo sapiens (Human), UniProt Q00534); experiment: CDK6/Cyclin D3 ADP-Glo Kinase Assay; type: biochemical; details: 100 uM ATP, read-out: CDK6/ CyclinD3 IC50
Method in brief: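 Enzyme and inhibitor were pre-incubated for 30 min at room temperature before ATP/substrate was added. The kinase reaction ran 90 min at room temperature, and ADP formed was detected by ADP-Glo luminescence. IC50 was fitted with a 4-parameter equation to fractional velocity versus inhibitor concentration.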

MCF-7 cells = experiment: Cell Growth Inhibition, MCF-7 (CellTiterGlo, 6 days); type: cell-based; details: Homo sapiens, MCF7, 144 h, MCF-7, 6-day treatment
Method in brief: (§1)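 MCF-7 (ER+ breast adenocarcinoma) or CCNE1-amplified OVCAR-3 cells, 500/well in RPMI with 10% FBS, treated with half-log dilutions typically 10-10,000 nM for 6 days at 37 °C. CellTiterGlo 2.0 luminescence gave % growth inhibition versus control; IC50 by four-parameter variable-slope fit.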

OVCAR-3 cells = experiment: Cell Growth Inhibition, OVCAR-3 (CellTiterGlo, 6 days); type: cell-based; details: Homo sapiens, 144 h, OVCAR-3, 6-day treatment
Method in brief: as §1

CDK4/Cyclin D1 [2] = target: T1, CDK4/Cyclin D1; experiment: CDK4/Cyclin D1 CHEF Assay (AQT0258 peptide); type: biochemical; details: 200 uM ATP, read-out: CDK4/ CyclinD1 AQT IC50
Method in brief: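 Sox-labelled peptide AQT0258 phosphorylation read as chelation-enhanced fluorescence (ex 360/em 485 nm) with Mg(II). Enzyme preincubated with inhibitor 30 min at 22°C, substrate added, 3 h at 22°C; IC50 from four-parameter fit of fractional velocity versus inhibitor concentration.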

Sequence of CDK6/Cyclin D3 (Q00534 whole entry): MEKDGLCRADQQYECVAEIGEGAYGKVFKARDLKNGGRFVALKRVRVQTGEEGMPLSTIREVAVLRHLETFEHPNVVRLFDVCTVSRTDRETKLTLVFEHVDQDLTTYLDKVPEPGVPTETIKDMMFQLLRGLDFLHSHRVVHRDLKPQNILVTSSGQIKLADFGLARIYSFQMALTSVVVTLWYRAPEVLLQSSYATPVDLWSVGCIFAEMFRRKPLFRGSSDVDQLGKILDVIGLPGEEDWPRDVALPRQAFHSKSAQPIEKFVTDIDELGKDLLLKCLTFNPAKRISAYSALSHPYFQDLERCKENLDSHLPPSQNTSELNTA
Sequence of CDK6/Cyclin D3 (P30281 whole entry partner): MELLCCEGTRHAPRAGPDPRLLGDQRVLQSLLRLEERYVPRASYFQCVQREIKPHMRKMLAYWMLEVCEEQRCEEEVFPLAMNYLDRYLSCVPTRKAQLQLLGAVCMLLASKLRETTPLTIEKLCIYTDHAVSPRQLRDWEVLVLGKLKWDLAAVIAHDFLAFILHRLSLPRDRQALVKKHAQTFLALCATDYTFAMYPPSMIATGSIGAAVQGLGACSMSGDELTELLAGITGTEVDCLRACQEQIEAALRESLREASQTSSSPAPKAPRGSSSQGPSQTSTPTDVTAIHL
T1 sequence (P11802 whole entry): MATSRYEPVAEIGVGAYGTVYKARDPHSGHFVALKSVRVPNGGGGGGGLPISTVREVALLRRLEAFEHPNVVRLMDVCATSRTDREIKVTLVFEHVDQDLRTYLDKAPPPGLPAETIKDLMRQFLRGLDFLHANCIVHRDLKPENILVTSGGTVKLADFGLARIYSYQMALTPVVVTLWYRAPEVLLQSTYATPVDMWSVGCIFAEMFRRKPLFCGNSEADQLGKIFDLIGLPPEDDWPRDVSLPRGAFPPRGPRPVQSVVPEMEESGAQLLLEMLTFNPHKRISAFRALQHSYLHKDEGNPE
T1 sequence (P24385 whole entry partner): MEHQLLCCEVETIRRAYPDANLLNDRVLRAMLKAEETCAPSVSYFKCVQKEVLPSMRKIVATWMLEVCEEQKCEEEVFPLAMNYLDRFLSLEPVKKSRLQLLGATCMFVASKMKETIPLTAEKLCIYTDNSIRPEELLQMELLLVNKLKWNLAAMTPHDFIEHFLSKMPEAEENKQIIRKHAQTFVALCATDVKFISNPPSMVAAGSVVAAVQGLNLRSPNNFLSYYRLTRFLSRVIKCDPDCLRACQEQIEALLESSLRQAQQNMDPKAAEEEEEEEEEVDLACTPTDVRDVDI
Sequence of CDK1/Cyclin B1 (P06493 whole entry): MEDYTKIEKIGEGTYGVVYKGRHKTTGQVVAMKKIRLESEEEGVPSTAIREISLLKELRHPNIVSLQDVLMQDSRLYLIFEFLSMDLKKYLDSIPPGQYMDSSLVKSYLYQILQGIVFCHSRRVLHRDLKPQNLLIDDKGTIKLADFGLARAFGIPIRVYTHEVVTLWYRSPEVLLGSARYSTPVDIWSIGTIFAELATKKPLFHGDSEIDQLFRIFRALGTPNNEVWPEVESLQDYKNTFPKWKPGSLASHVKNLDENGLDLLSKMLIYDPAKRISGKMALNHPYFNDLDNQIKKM
Sequence of CDK1/Cyclin B1 (P14635 whole entry partner): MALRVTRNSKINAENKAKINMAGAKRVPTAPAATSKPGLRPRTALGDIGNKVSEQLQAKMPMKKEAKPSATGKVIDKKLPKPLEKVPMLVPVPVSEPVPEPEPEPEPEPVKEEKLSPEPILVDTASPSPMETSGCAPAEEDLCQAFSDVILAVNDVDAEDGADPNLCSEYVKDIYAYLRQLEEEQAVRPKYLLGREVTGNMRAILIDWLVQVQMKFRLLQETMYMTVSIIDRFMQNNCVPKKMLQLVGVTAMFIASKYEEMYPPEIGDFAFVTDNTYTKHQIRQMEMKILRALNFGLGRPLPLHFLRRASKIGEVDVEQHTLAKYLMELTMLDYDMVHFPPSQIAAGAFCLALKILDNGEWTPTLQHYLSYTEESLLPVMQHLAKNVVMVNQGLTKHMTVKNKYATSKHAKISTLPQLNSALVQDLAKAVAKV

| IC50 (CDK1/Cyclin B1) [µM] | IC50 (CDK2/Cyclin E1) [µM] | IC50 (CDK4/Cyclin D1 [1]) [µM] | IC50 (CDK6/Cyclin D3) [µM] | IC50 (MCF-7 cells) [µM] | IC50 (OVCAR-3 cells) [µM] | IC50 (CDK4/Cyclin D1 [2]) [µM] | SMILES |
| --- | --- | --- | --- | --- | --- | --- | --- |
| 0.2 to 0.5 | < 0.2 | < 0.2 | < 0.2 | 0.2 to 0.5 | 0.5 to 2 | – | CN1CCN(c2ccc(Nc3ncc4ccnc(N5CCC6(C5)CC(F)(F)C6)c4n3)cc2)CC1 [Compound 4, 8-(2,2-difluoro-6-azaspiro[3.4]octan-6-yl)-N-(4-(4-methylpiperazin-1-yl)phenyl)pyrido[3,4-d]pyrimidin-2-amine] |
| > 2 | < 0.2 | < 0.2 | < 0.2 | 0.5 to 2 | 0.5 to 2 | – | CN1CCn2nc(Nc3ncc4ccnc(N5CCC6(C5)CC6(F)F)c4n3)cc2C1 (stereo not drawn) [Compound 10, 8-(1,1-difluoro-5-azaspiro[2.4]heptan-5-yl)-N-(5-methyl-4,5,6,7-tetrahydropyrazolo[1,5-a]pyrazin-2-yl)pyrido[3,4-d]pyrimidin-2-amine] |
| > 2 | < 0.2 | 0.5 to 2 | > 2 | > 2 | > 2 | – | CS(=O)(=O)N1CCC(Nc2ncc3ccnc(N4CC5(CCCC5)c5c(F)cccc54)c3n2)CC1 [Compound 19, 8-(4′-fluorospiro[cyclopentane-1,3′-indolin]-1′-yl)-N-(1-(methylsulfonyl)piperidin-4-yl)pyrido[3,4-d]pyrimidin-2-amine] |
| > 2 | 0.5 to 2 | 0.5 to 2 | > 2 | > 2 | > 2 | – | CN1C[C@@H]2[C@H](C1)[C@H]2Nc1ncc2ccnc(N3CCC4(CCN(S(C)(=O)=O)C4)C3)c2n1 (stereo partly drawn) [Compound 15, N-((1R,5S,6s)-3-methyl-3-azabicyclo[3.1.0]hexan-6-yl)-8-(7-(methylsulfonyl)-2,7-diazaspiro[4.4]nonan-2-yl)pyrido[3,4-d]pyrimidin-2-amine] |
| > 2 | 0.2 to 0.5 | < 0.2 | 0.2 to 0.5 | 0.5 to 2 | 0.5 to 2 | – | CN1C[C@@H]2[C@H](C1)[C@H]2Nc1ncc2ccnc(N3CCC4(C3)CC4(F)F)c2n1 (stereo partly drawn) [Compound 17, 8-(1,1-difluoro-5-azaspiro[2.4]heptan-5-yl)-N-((1R,5S,6s)-3-methyl-3-azabicyclo[3.1.0]hexan-6-yl)pyrido[3,4-d]pyrimidin-2-amine] |
| 0.2 to 0.5 | – | < 0.2 | – | 0.5 to 2 | < 0.2 | – | CS(=O)(=O)N1CCC(Nc2ncc3ccnc(N4CC5(C4)CN(C4CC4)C5)c3n2)CC1 [Compound 8, 8-(6-cyclopropyl-2,6-diazaspiro[3.3]heptan-2-yl)-N-(1-(methylsulfonyl)piperidin-4-yl)pyrido[3,4-d]pyrimidin-2-amine] |
| > 2 | 0.2 to 0.5 | < 0.2 | < 0.2 | – | – | – | CCN1CC2(C1)CN(c1ccc(Nc3ncc4ccnc(N5CCC6(C5)CC6(F)F)c4n3)nc1)C2 (stereo not drawn) [Compound 21, 8-(1,1-difluoro-5-azaspiro[2.4]heptan-5-yl)-N-(5-(6-ethyl-2,6-diazaspiro[3.3]heptan-2-yl)pyridin-2-yl)pyrido[3,4-d]pyrimidin-2-amine] |
| < 0.2 | < 0.2 | – | < 0.2 | 0.5 to 2 | 0.5 to 2 | < 0.2 | Cc1cc2cnc(NC3CCN(S(C)(=O)=O)CC3)nc2c(C2CC(O)(C(F)F)C2)n1 (stereo not drawn) [Compound 93, 1-(difluoromethyl)-3-(6-methyl-2-((1-(methylsulfonyl)piperidin-4-yl)amino)pyrido[3,4-d]pyrimidin-8-yl)cyclobutan-1-ol] |
| 0.2 to 0.5 | – | < 0.2 | – | 0.5 to 2 | 0.5 to 2 | – | CN1CCN(c2ccc(Nc3ncc4ccnc(N5CCC6(CCN(S(C)(=O)=O)C6)C5)c4n3)cc2)CC1 (stereo not drawn) [Compound 9, N-(4-(4-methylpiperazin-1-yl)phenyl)-8-(7-(methylsulfonyl)-2,7-diazaspiro[4.4]nonan-2-yl)pyrido[3,4-d]pyrimidin-2-amine] |
| < 0.2 | < 0.2 | – | < 0.2 | 0.5 to 2 | 0.5 to 2 | < 0.2 | CS(=O)(=O)N1CCC(Nc2ncc3cc(C4CC4)nc(C4CC5(CNCCO5)C4)c3n2)CC1 (stereo not drawn) [Compound 70, 6-cyclopropyl-N-(1-(methylsulfonyl)piperidin-4-yl)-8-(5-oxa-8-azaspiro[3.5]nonan-2-yl)pyrido[3,4-d]pyrimidin-2-amine] |
| 0.2 to 0.5 | < 0.2 | – | < 0.2 | 0.2 to 0.5 | 0.2 to 0.5 | < 0.2 | Cc1cc2cnc(NC3CCN(S(=O)(=O)C4CC4)CC3)nc2c(N2CC3(CCNC3)C2)n1 [Example 25, N-(1-(cyclopropylsulfonyl)piperidin-4-yl)-6-methyl-8-(2,6-diazaspiro[3.4]octan-2-yl)pyrido[3,4-d]pyrimidin-2-amine] |
| 0.5 to 2 | < 0.2 | – | 0.2 to 0.5 | 0.5 to 2 | 0.5 to 2 | < 0.2 | Cc1cc2cnc(NC3CCN(S(=O)(=O)CC4CCCC4)CC3)nc2c(N2CC3(CCNC3)C2)n1 [Example 51, N-(1-((cyclopentylmethyl)sulfonyl)piperidin-4-yl)-6-methyl-8-(2,6-diazaspiro[3.4]octan-2-yl)pyrido[3,4-d]pyrimidin-2-amine] |
| > 2 | < 0.2 | – | < 0.2 | 0.5 to 2 | 0.5 to 2 | < 0.2 | Cc1cc2cnc(N[C@H]3CC[C@H](CN(C)C)CC3)nc2c(N2CCC3(C2)CC3(F)F)n1 (stereo partly drawn) [Compound 40, 8-(1,1-difluoro-5-azaspiro[2.4]heptan-5-yl)-N-((1r,4r)-4-((dimethylamino)methyl)cyclohexyl)-6-methylpyrido[3,4-d]pyrimidin-2-amine] |
| 0.2 to 0.5 | < 0.2 | – | 0.2 to 0.5 | 0.5 to 2 | 0.5 to 2 | < 0.2 | Cc1cc2cnc(NC3CCN(S(=O)(=O)C4CC4)CC3)nc2c(N2CC3(C2)CC(C)(O)C3)n1 [Compound 78, 2-(2-((1-(cyclopropylsulfonyl)piperidin-4-yl)amino)-6-methylpyrido[3,4-d]pyrimidin-8-yl)-6-methyl-2-azaspiro[3.3]heptan-6-ol] |
| 0.5 to 2 | < 0.2 | – | < 0.2 | 0.5 to 2 | 0.5 to 2 | < 0.2 | Cc1cc2cnc(Nc3ccc(N4CC5(CN(C)C5)C4)cc3)nc2c(N2CCC(C#N)(C3CC3)C2)n1 (stereo not drawn) [Compound 28, 3-cyclopropyl-1-(6-methyl-2-((4-(6-methyl-2,6-diazaspiro[3.3]heptan-2-yl)phenyl)amino)pyrido[3,4-d]pyrimidin-8-yl)pyrrolidine-3-carbonitrile] |
| 0.2 to 0.5 | < 0.2 | – | < 0.2 | > 2 | > 2 | < 0.2 | Cc1cc2cnc(NC3CCN(S(C)(=O)=O)CC3)nc2c(N2CC3(CCC(=O)N3)C2)n1 [Compound 77, 2-(6-methyl-2-((1-(methylsulfonyl)piperidin-4-yl)amino)pyrido[3,4-d]pyrimidin-8-yl)-2,5-diazaspiro[3.4]octan-6-one] |
| 0.5 to 2 | < 0.2 | – | 0.2 to 0.5 | > 2 | > 2 | 0.2 to 0.5 | Cc1cc2cnc(NC3CCN(S(=O)(=O)C4CC4)CC3)nc2c(N2CC(CS(C)(=O)=O)C2)n1 [Compound 74, N-(1-(cyclopropylsulfonyl)piperidin-4-yl)-6-methyl-8-(3-((methylsulfonyl)methyl)azetidin-1-yl)pyrido[3,4-d]pyrimidin-2-amine] |
